Literature values in paper PMC9374181 (Toxicology and applied pharmacology, 2022).
Like-named read-outs stand apart in the source and are kept apart here.

Assays:
[1] = rat models, IM
[2] = general statement on approved oximes

Structure (SMILES) | Cmax ([1]; 50 mg/kg, ref Cassel and Fosbraey, 1996) [ng/mL] | plasma T1/2 [2] | plasma T1/2 (ref Cassel and Fosbraey, 1996) [min] | Cmax ([1]; 50 mg/kg, no reference given) [ng/mL] | plasma T1/2 (ref Alioth-Streichenberg et al., 1991) [min] | Cmax ([1]; 40 mg/kg, ref Green et al., 1986) [ng/mL] | published half-life (published value, no reference given)
NC(=O)c1cc[n+](COC[n+]2ccccc2/C=N/O)cc1 [asoxime] | 900 | less than 90 min | 48 |  |  |  | 
O/N=C/c1cc[n+](COC[n+]2ccc(/C=N/O)cc2)cc1 [obidoxime] |  | less than 90 min |  | 26000 | 35 |  | 
C[n+]1ccccc1/C=N/O [Oxime 2-PAM, pralidoxime] |  | less than 90 min |  |  |  | 14500 | less than 2 hours
